# Results: US20190119196A1, “COMPOUNDS FOR THE TREATMENT OF […]” (priority 2016, published 2019)
# Where a name gives a salt, the structure may show the parent alone. Read-outs that look alike come from different tables or passages of the source.
# Legend:
# human β2-adrenoceptor = target: T1, human β2-adrenoceptor (Homo sapiens, UniProt P07550); test: 3H-CGP 12177 whole cell β2 binding
# T1 construct: expressed in transfected cells
# Procedure: ^3H-CGP 12177 Whole Cell β2 Binding
# Chinese Hamster Ovary (CHO) cells stably expressing the human β2-adrenoceptor were grown in Dulbecco's modified Eagle's medium nutrient mix F12 (DMEM/F12) containing 10% fetal calf serum and 2 mM L-glutamine in a 37° C. humidified 5% CO2:95% air atmosphere. The cells were seeded (100 000 cells/mL) into white-sided, clear-bottomed 96-well isoplates and allowed to grow to confluence for the following day's experiment. Next day, the media was removed from each well of the isoplate. Aliquots of the test compounds (10^−2 M in DMSO) were diluted in DMEM/F12 containing 2 mM L-glutamine (serum-free media) to final concentration ranges of 10^−4 M to 10^−10 M and added to each well. The radioligand ^3H-CGP 12177 was diluted in the same medium (˜1 nM final well concentration) and added to each well. Propranolol and CGP 12177 (10 μM) were used to measure non-specific binding. The cells were incubated for 2 hours at 37° C. After incubation, the cells were washed twice by the addition and removal of 200 μL ice-cold phosphate-buffered saline (PBS). Cells were then lysed with Optiphase Supermix cocktail (100 μL/well) and a clear sealant top was applied to the plate. The plate was left overnight in the dark at room temperature, centrifuged (1000 rpm, 1 min) and measured in a MicroBeta2 Microplate Counter (Perkin Elmer) (10 minutes pre-incubation, 2 min counts/well).
# All data points on each binding curve were measured in duplicates. Each 96-well plate also contained four determinations of total and non-specific binding. Non-specific binding was determined in the presence of CGP 12177 and propranolol (10 μM). […] All data points are measured in counts per minute (CPM) and converted into disintegrations per minute (DPM) by dividing the count rate (CPM) with the counting efficiency of the instruments detector (57%). The numerical values were obtained by using the GraphPad Prism 7 programme and are given as -log K (pKi) in the table.
# L6-myotubes [1] = test: Measurement of intracellular cAMP levels (alpha screen cAMP kit); type: cell-based; conditions: agonist final concentration 1×10^−5, 15 min; differentiated cells; 1 mM IBMX
# Procedure: (§1) L6-myoblasts were grown in Dulbecco's Modified Eagle's Medium (DMEM) containing 4,5 g/I glucose supplemented with 10% fetal bovine serum, 2 mM L-Glutamine, 50 U/ml penicillin, 50 μg/ml streptomycin and 10 mM HEPES. Cells were plated at 1×10^5 cells per ml in 24-well plates. After reaching 90% confluence the cells were grown in medium containing 2% FBS for 7 days where upon cells differentited into myotubes.
# Differentiated cells were serum-starved over night and stimulated with agonist, final concentration 1×10−^5, for 15 min in stimulation buffer (HBSS supplemented with 1% BSA, 5 mM HEPES and 1 mM IBMX, pH 7,4) The medium was then aspirated and to end the reaction 100 μL of 95% EtOH was added to each well of a 24-well plate and cells were kept in −20° C. over night. The EtOH was let to evaporate and 500 μL of lysis buffer (1% BSA, 5 mM HEPES and 0,3% Tween-20, pH 7.4) was added to each well before put in −80° C. for 30 min and then kept in −20° C. Intracellular cAMP levels were detected using an alpha screen cAMP kit (6760635D from Perkin Elmer). The numerical values in the table are given as % increase over the basal level.
# L6-myotubes [2] = test: Glucose uptake in differentiated L6-myotubes (3H-2-deoxy-glucose); type: cell-based; conditions: read-out: Biological example 1: glucose uptake, % increase over the basal level
# Procedure: as §1
# Differentiated L6-myotubes were serum-starved over night in medium containing 0.5% fatty-acid free BSA and stimulated with agonist, […], glucose free medium or PBS and another portion of agonist was added to glucose free medium. […] Cell lysate was mixed with scintillation buffer (Emulsifier Safe, Perkin Elmer and radioactivity detected in a β-counter (Tri-Carb 2800TR, Perkin Elmer). The numerical values in the table are given as % increase over the basal level.
# [3] = CHO cells stably expressing the human β2-adrenoceptor, ~1 nM 3H-CGP 12177, 2 hours at 37° C., read-out: Biological example 3: -log K (pKi), 3H-CGP 12177 whole cell β2 binding (converted)
# [4] = agonist final concentration 1×10^−5, differentiated L6-myotubes, 50 nM 3H-2-deoxy-glucose
# T1 sequence (P07550 whole entry): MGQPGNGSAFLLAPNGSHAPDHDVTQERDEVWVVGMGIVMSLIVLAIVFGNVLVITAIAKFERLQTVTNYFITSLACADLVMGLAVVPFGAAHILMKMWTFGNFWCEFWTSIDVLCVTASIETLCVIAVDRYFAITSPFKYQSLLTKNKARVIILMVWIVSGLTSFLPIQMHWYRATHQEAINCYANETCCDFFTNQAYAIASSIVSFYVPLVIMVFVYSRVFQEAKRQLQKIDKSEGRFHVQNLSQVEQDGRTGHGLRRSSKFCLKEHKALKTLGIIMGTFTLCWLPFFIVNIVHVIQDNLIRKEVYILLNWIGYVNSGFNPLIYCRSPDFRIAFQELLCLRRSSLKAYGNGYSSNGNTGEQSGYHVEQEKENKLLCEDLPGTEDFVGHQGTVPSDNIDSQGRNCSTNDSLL
SMILES,Ki (human β2-adrenoceptor; [3]) [µM],"Biological example 2: intracellular cAMP levels, % increase over the basal level (L6-myotubes [1]) [%]",activation (L6-myotubes [2]; [4]) [%],Ki (human β2-adrenoceptor) [µM],activation (L6-myotubes [2]) [%]
"CCCC(C)NC(C)C(O)c1ccc(O)cc1 (mixture of isomers) [Example 13, 4-(1-Hydroxy-2-(pentan-2-ylamino)propyl)phenol acetate]",15.8,−1,42,–,–
"CCCC(C)NCC(O)c1cccc(O)c1 (mixture of isomers) [Example 15, 3-(1-Hydroxy-2-(pentan-2-ylamino)ethyl)phenol]",0.794,20,31,–,–
"CCCC(C)NCC(O)c1ccc(O)c(Cl)c1 (mixture of isomers) [Example 19, 2-Chloro-4-(1-hydroxy-2-(pentan-2-ylamino)ethyl)phenol]",0.501,−52,30,–,–
"CCCC(C)NCC(O)c1cc(Cl)c(O)c(Cl)c1 (mixture of isomers) [Example 27, 2,6-Dichloro-4-(1-hydroxy-2-(pentan-2-ylamino)ethyl)phenol]",1.26,86,6,–,–
"CCCC(C)NCC(O)c1cc(Cl)c(N)c(Cl)c1 (mixture of isomers) [Example 28, 1-(4-Amino-3,5-dichlorophenyl)-2-(pentan-2-ylamino)ethan-1-ol trifluoroacetate]",–,2,–,0.398,39
"CCCC(C)NCC(O)c1cc(Cl)c(N)c(C(F)(F)F)c1 (mixture of isomers) [Example 31, 1-(4-amino-3-chloro-5-(trifluoromethyl)phenyl)-2-(pentan-2-ylamino)ethan-1-ol]",–,439,36,0.0316,–
"CCCC(C)NCC(O)c1ccc(Cl)c(O)c1 (mixture of isomers) [Example 33, 2-Chloro-5-(1-hydroxy-2-(pentan-2-ylamino)ethyl)phenol]",1,1191,55,–,–
"CCCCNCC(O)c1ccc(O)cc1 (stereo not shown) [Example 1, 4-(2-(Butylamino)-1-hydroxyethyl)phenol]",25.1,1,50,–,–
"CCCCNCC(O)c1cccc(Cl)c1 (stereo not shown) [Example 2, 2-(Butylamino)-1-(3-chlorophenyl)ethan-1-ol]",6.31,3,27,–,–
"Oc1ccc(C(O)CNCC2CC2)cc1 (stereo not shown) [Example 3, 4-(2-((Cyclopropylmethyl)amino)-1-hydroxyethyl)phenol]",25.1,18,86,–,–
"CC(C)(C)NCC(O)c1ccc(O)cc1 (stereo not shown) [Example 4, 4-(2-(tert-Butylamino)-1-hydroxyethyl)phenol]",1,40,–,–,62
"CCC(C)NCC(O)c1ccc(O)cc1 (stereo not shown) [Example 5, 4-(2-(sec-Butylamino)-1-hydroxyethyl)phenol]",5.01,18,39,–,–
"Oc1ccc(C(O)CNCC2CCCCC2)cc1 (stereo not shown) [Example 6, 4-(2-((Cyclohexylmethyl)amino)-1-hydroxyethyl)phenol]",10,3,23,–,–
"Oc1ccc(C(O)CNC2CCCC2)cc1 (stereo not shown) [Example 7, 4-(2-(cyclopentylamino)-1-hydroxyethyl)phenol acetate]",5.01,1,23,–,–
"CCCC(C)NCC(O)c1ccc(O)cc1 (stereo not shown) [Example 8, 4-(1-Hydroxy-2-(pentan-2-ylamino)ethyl)phenol acetate]",20,15,–,–,12
"Oc1ccc(C(O)CNC23CC4CC(CC(C4)C2)C3)cc1 (stereo not shown) [Example 9, 4-(2-(adamantan-1-ylamino)-1-hydroxyethyl)phenol hemisulfate]",50.1,4,18,–,–
"OC(CNCC1CCCCC1)c1ccccc1 (stereo not shown) [Example 10, 2-((cyclohexylmethyl)amino)-1-phenylethan-1-ol]",25.1,5,39,–,–
"CCCCNC[C@H](O)c1ccc(O)cc1 [Example 11, (R)-4-(2-(Butylamino)-1-hydroxyethyl)phenol hemisulfate]",39.8,10,50,–,–
"CCCCNC(C)C(O)c1ccc(O)cc1 (stereo not shown) [Example 12, 4-(2-(Butylamino)-1-hydroxypropyl)phenol acetate]",7.94,190,40,–,–
"CCCCNCC(O)c1cccc(O)c1 (stereo not shown) [Example 14, 3-(2-(Butylamino)-1-hydroxyethyl)phenol]",15.8,20,17,–,–
"Oc1ccc(C(O)CNCCC2CCCCC2)cc1 (stereo not shown) [Example 16, 4-(2-((2-Cyclohexylethyl)amino)-1-hydroxyethyl)phenol acetate]",5.01,−56,23,–,–
"CCCCCCNCC(O)c1ccc(O)cc1 (stereo not shown) [Example 17, 4-(2-(Hexylamino)-1-hydroxyethyl)phenol acetate]",6.31,70,26,–,–
"CCCCCCCCNCC(O)c1ccc(O)cc1 (stereo not shown) [Example 18, 4-(1-Hydroxy-2-(octylamino)ethyl)phenol acetate]",6.31,−23,26,–,–
"CCCCNCC(O)c1ccc(O)c(Cl)c1 (stereo not shown) [Example 20, 4-(2-(Butylamino)-1-hydroxyethyl)-2-chlorophenol]",3.16,−19,12,–,–
"Oc1ccc(C(O)CNCCCC2CCCCC2)cc1 (stereo not shown) [Example 21, 4-(2-((3-Cyclohexylpropyl)amino)-1-hydroxyethyl)phenol]",2,−16,37,–,–
"Oc1ccc(C(O)CNCCC2CC2)cc1 (stereo not shown) [Example 22, 4-(2-((2-Cyclopropylethyl)amino)-1-hydroxyethyl)phenol]",12.6,20,30,–,–
"Oc1ccc(C(O)CNCCCC2CC2)cc1 (stereo not shown) [Example 23, 4-(2-((3-Cyclopropylpropyl)amino)-1-hydroxyethyl)phenol acetate]",7.94,–,28,–,–
"Oc1ccc(C(O)CNCCCC(F)(F)F)cc1 (stereo not shown) [Example 24, 4-(1-Hydroxy-2-((4,4,4-trifluorobutyl)amino)ethyl)phenol acetate]",10,–,22,–,–
"CCCCNCC(O)c1cc(O)cc(O)c1 (stereo not shown) [Example 25, 5-(2-(Butylamino)-1-hydroxyethyl)benzene-1,3-diol hemisulphate]",39.8,115,32,–,–
